Test system: normal anesthetized rats
Test: Flexor reflex in normal anesthetized rats (spasticity model)
Type: in vivo
Conditions: in comparison to baclofen, Figure 3 legend only, no numbers given
Text: Baclofen, diazepam (Valium), and tizanidine are effective on different parameters of spasticity (EMG recordings, H-reflex, the H/M ratio, mono- and polysynaptic reflexes, clonus, hyperreflexia) in these models. The flexor reflex is a polysynaptic response elicited by stimulation of the bottom of the foot and models the withdrawal reflex.

SMILES: NC(=O)CC(c1cccc(F)c1)c1cccc(F)c1 [Compound 1, 3,3-bis(3-fluorophenyl)propanamide]
- reduction in the flexor reflex: reduction in the flexor reflex
